Assay results reported in patent US8536332B2, “Modulating signal transduction pathways with substituted pyridol [2,3-b] pyrazines” (Aeterna Zentaris GmbH, priority 2007, dated 2013).

Structure (SMILES)	melting point [°C]
CCNC(=S)Nc1ccc2ncc(-c3cccc(OC(C)C)c3)nc2n1 [Compound 127, 1-Ethyl-3-[3-(3-isopropoxy-phenyl)-pyrido[2,3-b]pyrazin-6-yl]-thiourea]	227
COc1cc(-c2ccc3ncc(NC(=O)NCCc4ccccc4)nc3n2)ccc1O [Compound 26, 1-[6-(4-Hydroxy-3-methoxy-phenyl)-pyrido[2,3-b]pyrazin-3-yl]-3-phenethyl-urea]	235 to 237
COc1cc(-c2ccc3ncc(NC(=S)NC4CCCCC4)nc3n2)ccc1O [Compound 524, 1-Cyclohexyl-3-[6-(4-hydroxy-3-methoxy-phenyl)-pyrido[2,3-b]pyrazin-3-yl]-thiourea]	253 to 254
CCNC(=S)Nc1ccc2ncc(Nc3ccc(O)cc3)nc2n1 [Compound 161, 1-Ethyl-3-[3-(4-hydroxy-phenylamino)-pyrido[2,3-b]pyrazin-6-yl]-thiourea]	262
COc1cc(-c2ccc3ncc(NC(=O)NC4CCN(C(=O)OCc5ccccc5)CC4)nc3n2)ccc1O [Compound 606, 4-{3-[6-(4-Hydroxy-3-methoxy-phenyl)-pyrido[2,3-b]pyrazin-3-yl]-ureido}-piperidine-1-carboxylic acid benzyl ester]	210 to 212
CCNC(=S)Nc1cnc2ccc(Nc3ccc(C4(C#N)CCCC4)cc3)nc2n1 [Compound 257, 1-{6-[4-(1-Cyano-cyclopentyl)-phenylamino]-pyrido[2,3-b]pyrazin-3-yl}-3-ethyl-thiourea]	216
CCNC(=O)Nc1ccc2ncc(-c3ccccc3OCC(C)C)nc2n1 [Compound 62, 1-Ethyl-3-[3-(2-isobutoxy-phenyl)-pyrido[2,3-b]pyrazin-6-yl]-urea]	179 to 181
COc1cc(Nc2cnc3ccc(NC(=S)NC4CCCCCCC4)nc3n2)cc(OC)c1OC [Compound 691, 1-Cyclooctyl-3-[3-(3,4,5-trimethoxy-phenylamino)-pyrido[2,3-b]pyrazin-6-yl]-thiourea]	250
Cc1cc(-c2ccc3ncc(NC(=O)Nc4c(C)noc4C)nc3n2)cc(C)c1O [Compound 590, 1-(3,5-Dimethyl-isoxazol-4-yl)-3-[6-(4-hydroxy-3,5-dimethyl-phenyl)-pyrido[2,3-b]pyrazin-3-yl]-urea]	242 to 244
CCOc1ccc(NC(=O)Nc2cnc3ccc(-c4ccc(O)c(OC)c4)nc3n2)cc1 [Compound 624, 1-(4-Ethoxy-phenyl)-3-[6-(4-hydroxy-3-methoxy-phenyl)-pyrido[2,3-b]pyrazin-3-yl]-urea]	242 to 245
CCNC(=S)Nc1cnc2ccc(Nc3cccc(OC)c3)nc2n1 [Compound 221, 1-Ethyl-3-[6-(3-methoxy-phenylamino)-pyrido[2,3-b]pyrazin-3-yl]-thiourea]	189
COc1cc(-c2ccc3ncc(NC(=O)NC4CCCCCCCCCCC4)nc3n2)ccc1O [Compound 628, 1-Cyclododecyl-3-[6-(4-hydroxy-3-methoxy-phenyl)-pyrido[2,3-b]pyrazin-3-yl]-urea]	233 to 235
COc1cc(-c2ccc3ncc(NC(=O)Nc4ccnc(N5CCOCC5)c4)nc3n2)ccc1O [Compound 607, 1-[6-(4-Hydroxy-3-methoxy-phenyl)-pyrido[2,3-b]pyrazin-3-yl]-3-(2-morpholin-4-yl-pyridin-4-yl)-urea]	260 to 263
CCNC(=O)Nc1ccc2ncc(-c3cccc4c3oc3ccccc34)nc2n1 [Compound 71, 1-(3-Dibenzofuran-4-yl-pyrido[2,3-b]pyrazin-6-yl)-3-ethyl-urea]	> 300
CCOC(=O)CCNC(=S)Nc1ccc2ncc(Nc3cc(OC)c(OC)c(OC)c3)nc2n1 [Compound 709, 3-{3-[3-(3,4,5-Trimethoxy-phenylamino)-pyrido[2,3-b]pyrazin-6-yl]-thioureido}-propionic acid ethyl ester]	244
COc1cc(-c2ccc3ncc(NC(=O)Nc4ccc(C#N)cc4)nc3n2)ccc1O [Compound 626, 1-(4-Cyano-phenyl)-3-[6-(4-hydroxy-3-methoxy-phenyl)-pyrido[2,3-b]pyrazin-3-yl]-urea]	259 to 261
Cc1cc(-c2ccc3ncc(NC(=O)Nc4ccccc4)nc3n2)cc(C)c1O [Compound 595, 1-[6-(4-Hydroxy-3,5-dimethyl-phenyl)-pyrido[2,3-b]pyrazin-3-yl]-3-phenyl-urea]	271 to 273
CCNC(=S)Nc1ccc2ncc(-c3cc(C)c(O)c(C)c3)nc2n1 [Compound 125, 1-Ethyl-3-[3-(4-hydroxy-3,5-dimethyl-phenyl)-pyrido[2,3-b]pyrazin-6-yl]-thiourea]	244
COc1cc(-c2ccc3ncc(NC(=O)Nc4cccc5c4ccn5C)nc3n2)ccc1O [Compound 621, 1-[6-(4-Hydroxy-3-methoxy-phenyl)-pyrido[2,3-b]pyrazin-3-yl]-3-(1-methyl-1H-indol-4-yl)-urea]	248 to 251
COc1cc(-c2ccc3ncc(NC(=O)Nc4cccc([N+](=O)[O-])c4)nc3n2)ccc1O [Compound 618, 1-[6-(4-Hydroxy-3-methoxy-phenyl)-pyrido[2,3-b]pyrazin-3-yl]-3-(3-nitro-phenyl)-urea]	274 to 276

Results, then the compound that gave them:

melting point [°C]	Structure (SMILES)
222	CCNC(=O)Nc1ccc2ncc(Nc3cc(C)c(O)cc3C)nc2n1 [Compound 446, 1-Ethyl-3-[3-(4-hydroxy-2,5-dimethyl-phenylamino)-pyrido[2,3-b]pyrazin-6-yl]-urea]
243	CCNC(=O)Nc1ccc2ncc(Nc3cccc(C(C)=O)c3)nc2n1 [Compound 170, 1-[3-(3-Acetyl-phenylamino)-pyrido[2,3-b]pyrazin-6-yl]-3-ethyl-urea]
223 to 226	CCNC(=O)Nc1ccc2ncc(-c3cnn(CCN4CCOCC4)c3)nc2n1 [Compound 60, 1-Ethyl-3-{3-[1-(2-morpholin-4-yl-ethyl)-1H-pyrazol-4-yl]-pyrido[2,3-b]pyrazin-6-yl}-urea]
221	CCNC(=O)Nc1cnc2ccc(-c3cc(C)c(OC(C)C)c(C)c3)nc2n1 [Compound 597, 1-Ethyl-3-[6-(4-isopropoxy-3,5-dimethyl-phenyl)-pyrido[2,3-b]pyrazin-3-yl]-urea]
247 to 250	Cc1cc(-c2ccc3ncc(NC(=O)NC4CCCCC4)nc3n2)cc(C)c1O [Compound 584]
229 to 231	CCNC(=O)Nc1ccc2ncc(-c3ccc(F)cc3OCC)nc2n1 [Compound 112, 1-[3-(2-Ethoxy-4-fluoro-phenyl)-pyrido [2,3-b]pyrazin-6-yl]-3-ethyl-urea]
253	CCNC(=O)Nc1ccc2ncc(Nc3cccc(Cl)c3)nc2n1 [Compound 167, 1-[3-(3-Chloro-phenylamino)-pyrido[2,3-b]pyrazin-6-yl]-3-ethyl-urea]
337 to 339	CCNC(=O)Nc1ccc2ncc(-c3ccc(O)c(Br)c3)nc2n1 [Compound 47, 1-[3-(3-Bromo-4-hydroxy-phenyl)-pyrido[2,3-b]pyrazin-6-yl]-3-ethyl-urea]
257 to 259	CCNC(=O)Nc1ccc2ncc(-c3cncn3C)nc2n1 [Compound 53, 1-Ethyl-3-[3-(3-methyl-3H-imidazol-4-yl)-pyrido[2,3-b]pyrazin-6-yl]-urea]
247 to 249	CCNC(=O)Nc1ccc2ncc(-c3ccc(C)c(C)c3)nc2n1 [Compound 142, 1-[3-(3,4-Dimethyl-phenyl)-pyrido[2,3-b]pyrazin-6-yl]-3-ethyl-urea]
211 to 213	CCNC(=O)Nc1cnc2ccc(NCc3ccccc3)nc2n1 [Compound 239, 1-(6-Benzylamino-pyrido[2,3-b]pyrazin-3-yl)-3-ethyl-urea]
202 to 204	CCNC(=O)Nc1ccc2ncc(-c3cccc(OCC)c3F)nc2n1 [Compound 146, 1-[3-(3-Ethoxy-2-fluoro-phenyl)-pyrido[2,3-b]pyrazin-6-yl]-3-ethyl-urea]
255.3 to 258.2	CCNC(=O)Nc1ccc2ncc(-c3cc(C)c(OC)c(C)c3)nc2n1 [Compound 80, 1-Ethyl-3-[3-(4-methoxy-3,5-dimethyl-phenyl)-pyrido[2,3-b]pyrazin-6-yl]-urea]
220 to 222	CCCNC(=O)Nc1cnc2ccc(-c3ccc(O)c(OC)c3)nc2n1 [Compound 16, 1-[6-(4-Hydroxy-3-methoxy-phenyl)-pyrido[2,3-b]pyrazin-3-yl]-3-propyl-urea]
238	CCNC(=O)Nc1ccc2ncc(Nc3cccc(CO)c3)nc2n1 [Compound 154, 1-Ethyl-3-[3-(3-hydroxymethyl-phenylamino)-pyrido[2,3-b]pyrazin-6-yl]-urea]
250	CCNC(=O)Nc1ccc2ncc(-c3ccsc3)nc2n1 [Compound 141, 1-Ethyl-3-(3-thiophen-3-yl-pyrido[2,3-b]pyrazin-6-yl)-urea]
218 to 220	CCNC(=O)Nc1ccc2ncc(-c3ccn[nH]3)nc2n1 [Compound 52, 1-Ethyl-3-[3-(2H-pyrazol-3-yl)-pyrido[2,3-b]pyrazin-6-yl]-urea]
240 to 241	CCNC(=O)Nc1cnc2ccc(-c3cc(C)c(OC)c(C)c3)nc2n1 [Compound 586, 1-Ethyl-3-[6-(4-methoxy-3,5-dimethyl-phenyl)-pyrido[2,3-b]pyrazin-3-yl]-urea]
238.1 to 241.8	CCNC(=O)Nc1ccc2ncc(-c3cc(C(C)=O)ccc3F)nc2n1 [Compound 79, 1-[3-(5-Acetyl-2-fluoro-phenyl)-pyrido[2,3-b]pyrazin-6-yl]-3-ethyl-urea]
244	CCNC(=O)Nc1cnc2ccc(-c3ccc(OC)cc3)nc2n1 [Compound 11, 1-Ethyl-3-[6-(4-methoxy-phenyl)-pyrido[2,3-b]pyrazin-3-yl]-urea]
228 to 230	CCNC(=O)Nc1ccc2ncc(-c3cc(C)cc(Br)c3OC)nc2n1 [Compound 110, 1-[3-(3-Bromo-2-methoxy-5-methyl-phenyl)-pyrido[2,3-b]pyrazin-6-yl]-3-ethyl-urea]
199 to 201	CCNC(=O)Nc1cnc2ccc(N3CCCN(C)CC3)nc2n1 [Compound 233, 1-Ethyl-3-[6-(4-methyl-[1,4]diazepan-1-yl)-pyrido[2,3-b]pyrazin-3-yl]-urea]
